According to publication PMC12373846, “Hemoglobin as a pseudoperoxidase and drug target for oxidative stress-related diseases” (Signal Transduction and Targeted Therapy, 2025):

What was measured:
[1] = test system: primary cultured hippocampal astrocytes; test: DCFDA intracellular ROS assay; assay type: cell-based, mouse; conditions: for Aβ-induced ROS level (DCFDA), normalized to control: Aβ 5μM + compound 10μM, Fig. 3e; for relative ROS level (DCFDA): Aβ42+KDS12025 10 μM, Fig. 6c
Description: Primary hippocampal astrocytes were obtained from postnatal day 0‒2 (P0‒2) C57BL/6 mice as previously described.[73] The hippocampal tissue was dissected free of meninges, minced, and dissociated into a single-cell suspension by trituration. The cells were grown in Dulbecco’s modified Eagle’s medium supplemented with D-glucose (4500 mg/L), L-glutamine, sodium pyruvate (110 mg/L), 10% heat-inactivated horse serum, 10% heat-inactivated fetal bovine serum, and 1000 U/ml penicillin‒streptomycin. The cells were maintained at 37 °C in a humidified atmosphere containing 5% CO2.
The intracellular ROS levels of astrocytes were determined via 2′,7′- dichlorodihydrofluorescein diacetate (DCFDA; Thermo Fisher). Primary cultured hippocampal astrocytes were seeded into black 96-well plates (Ibidi) at a density of 5 × 10⁴ cells per well. The plates were incubated with oligomerized Aβ42 in the presence of KDS12008, KDS12017, KDS12025, HTPEB (10 µM each), and sodium pyruvate (1 mM). These cells were subsequently washed with Ca^2+ and Mg^2+-containing PBS, followed by the application of 30 µM DCFDA and incubation at 37 °C for 30 min in a dark incubator. The mean fluorescence intensity of each well was measured via iD5 microplate readers at 485 nm and 530 nm. The fluorescence values were calculated by subtracting the blank readings and normalizing them to those of the control group.

[2] = ROS-Glo H2O2 assay without HRP or Hb; assay type: biochemical; conditions: ROS-Glo assay lacking HRP/Hb
Description: Hb (Sigma‒Aldrich, H7379), H2O2 (Sigma‒Aldrich, H1009), and Amplex Red reagents (Invitrogen, A12222) were obtained for the study. A 4 μM H2O2 solution was prepared in 50 mM sodium phosphate buffer (pH 7.2). Then, 49 μl of this mixture was mixed with 1 μl of the test compound in DMSO or distilled water. The mixture was combined with an assay mixture of Amplex Red reagent (20 mM stock to 0.1 mM) and HRP (200 U/ml stock to 0.2 U/ml) and added to the wells at 50 μl/well. After a 60-min incubation at 37 °C, resorufin production was quantified via a microplate fluorescence reader (SpectraMax iD5, Molecular Devices) at ex/em = 535/580 nm. The H2O2-decomposing activity was estimated via the following equation: (sample fluorescence-blank fluorescence)/(control […]-blank fluorescence) × 100. For the ROS-Glo assay, the H2O2 substrate solution and ROS-Glo detection solution were prepared according to the manufacturer’s instructions. 10 μM H2O2 and drugs were prepared as in the Amplex Red assay, with HRP, Hb, CAT, or GPx added as needed. The mixture was added to the wells at 100 μl/well and incubated for 60 min at 37 °C. H2O2 substrate solution was added, and the mixture was incubated at room temperature for 30 min. After the H2O2 substrate solution was added and incubated at room temperature for 30 min, the ROS-Glo detection solution was added, and the mixture was incubated for 15 min. Luminescence was measured via iD5 microplate readers. The H2O2-decomposing activity was estimated via the following equation: (sample luminescence-blank luminescence)/(control luminescence-blank luminescence) × 100. The U/ml was calculated on the basis of the amount of H2O2 reduced by Hb during the reaction, using μg/ml and U/mg.

## CNc1ccc(NCCc2ccc(C(F)(F)F)cc2)cc1.Cl [KDS12017, N^1-methyl-N^4-(4-(trifluoromethyl)phenethyl)benzene-1,4-diamine hydrochloride salt]
[1]
  Aβ-induced ROS level (DCFDA), normalized to control: 109.6±6.466
[2]
  H2O2-decomposing activity without HRP or Hb: neither KDS12017 nor KDS12025 degrades H2O2 without Hb

## CN(C)c1ccc(NCCc2ccc(C(F)(F)F)cc2)cc1.Cl [KDS12008, N^1,N^1-dimethyl-N^4-(4-(trifluoromethyl)phenethyl)benzene-1,4-diamine hydrochloride salt]
[1]
  Aβ-induced ROS level (DCFDA), normalized to control: 96.78±7.989

## CNc1ccc(NCCc2ccccc2OC)cc1.Cl [KDS12025, N^1-(2-methoxyphenethyl)-N^4-methylbenzene-1,4-diamine hydrochloride salt]
[1]
  Aβ-induced ROS level (DCFDA), normalized to control: 110.3±5.804
[1]; Hbβ-shRNA astrocytes
  relative ROS level (DCFDA): 134.1±5.185
[1]; Sc-shRNA astrocytes
  relative ROS level (DCFDA): 105.8±2.173
[2]
  H2O2-decomposing activity without HRP or Hb: neither KDS12017 nor KDS12025 degrades H2O2 without Hb

## O=C(O)c1cc(NCCc2ccc(C(F)(F)F)cc2)ccc1O [HTPEB, 2-hydroxy-5-[2-(4-trifluoromethyl-phenyl)-ethylamino]-benzoic acid, reference compound]
[1]
  Aβ-induced ROS level (DCFDA), normalized to control: 112.0±8.321
[2]
  H2O2-decomposing activity without HRP or Hb: no activity
